From patent publication US8822541B2, “Use of targeted nitroxide agents in mitigating or treating radiation injury” (University of Pittsburgh—Of the Commonwealth System of …, priority 2008, dated 2014)
“Also recorded” adds a separate entry of the source.

Tests used:
[1] = test system: MEF cells from Ercc1−/− mice; test: Senescence, DNA damage, apoptosis and proliferation in Ercc1−/− MEF cells under oxidative stress; format: cell-based, mouse; settings: for γ-H2AX immunostaining: 1 μM, 48 hours; for γ-H2AX immunostaining / level of p16: 20% oxygen; for level of p16: 1 uM, 48 hrs
Protocol: Graphs showing weight over time of treated, untreated and control animals are shown in FIG. 36A-B. To assess the impact of XJB-5-131 at a cellular level, a number of experiments were carried out using mouse embryonic fibroblasts (“MEF”) cells harvested from Ercc1^−/− mouse embryos.
To test the protective activity of JP4-039, cultures of primary MEFs were prepared from Ercc1^−/− mouse embryos and grown under 20% oxygen (ambient air), which creates oxidative stress in these cells that are hypersensitive to reactive oxygen species. The cells were then either treated with a concentration of 1 uM XJB-5-131, JP4-039, JED-E71-37 or JED-E71-58, or left untreated (media), and then after 48 hrs the level of p16, a marker of irreversible cellular senescence, was measured by immunofluorescence staining.
To evaluate the protective activities of JED-E71-37 and JED-E71-58, primary MEF cells were prepared from Ercc1^−/− mice and grown under conditions of oxidative stress (ambient air, 20% oxygen). The cells were then either untreated or treated with 1 μM JED-E71-37 or JED-E71-58 for a period of 48 hours.
Next, the abilities of these two agents, as well as XJB-5-131 and JP4-039, each at a concentration of 1 μM, were tested for their ability to prevent oxidation-induced DNA double-strand breaks in cell cultures prepared, and oxidatively stressed, as in the preceding paragraph. Treated as well as untreated cells were, after 48 hours of treatment, immunostained for γ-H2AX, a marker of DNA double-strand breaks as well as cellular senescence.

[2] = test system: MEF cells from wild-type mouse embryos; test: Toxicity of JP4-039 in wild-type MEF cultures; format: cell-based; settings: up to 10 μM, 48 hours
Protocol: To assess the therapeutic potential of JP4-039, tests for safety and protective activity were performed. FIGS. 35 and 36 show the results of tests to evaluate whether varying concentrations of JP4-039 produce toxic effects after 48 hours in cultures of MEF cells prepared from Ercc1^−/− or wild-type mouse embryos, respectively.

mouse embryonic cells = test: EPR-based analysis of integration and reduction of nitroxide Gramicidin S-peptidyl conjugates in MECs; format: cell-based; settings: following incubation with solutions of the compounds
Protocol: Electron paramagnetic resonance (“EPR”) spectroscopy was used to monitor the cellular delivery of compounds 5a and 5b shown in FIG. 3 in mouse embryonic cells (“MEC”).
The following conditions were used during the EPR-based analysis of the integration and reduction of nitroxide Gramicidin S-peptidyl conjugates in MECs. The MECs at a concentration of 10 million MECs per mL were incubated with 10 μM of 4-AT and compound 5a, respectively. Recovered nitroxide radicals in whole cells, mitochondria, and cytosol fractions were resuspended in phosphate buffer saline (“PBS”) in the presence and absence, respectively, of 2 μM K3Fe(CN)6.

rat ileal mucosa = test: Peroxidation of phospholipids in intestinal mucosa after hemorrhagic shock; format: in vivo; settings: 10 μM intraluminal, 2 h HS
Excerpt: Assay for peroxidation of phospholipids. Gut mucosal samples were homogenized. Lipids were extracted from homogenates using the Folch procedure, see M. Lees and G. H. Sloan-Stanley, A simple method for isolation and purification of total lipids from animal tissue, J. BIOL. CHEM. 226:497-509 (1957), and resolved by 2D HPTLC (High Performance Thin Layer Chromatography) as previously described, see Kagan, V. E. et al., A role for oxidative stress in apoptosis: Oxidation and externalization of phosphatidylserine is required for macrophage clearance of cell undergoing Fas-mediated apoptosis, J Immunol, 2002, 169:487-489. Spots of phospholipids'were scraped from HPTLC plates and phospholipids were extracted from silica. Lipid phosphorus was determined by a micro-method, see Bottcher, C. J. F. et al., A rapid and sensitive sub-micro phosphorus determination, Anal Chim Acta. 1961, 24: 203-204.
Oxidized phospholipids were hydrolyzed by pancreatic phospholipase A2 (2 U/μl) in 25 mM phosphate buffer containing 1 mM CaCl2, 0.5 mM EDTA and 0.5 mM sodium dodecyl sulfate (SDS) (pH 8.0, at room temperature for 30 min). Fatty acid hydroperoxides formed were determined by fluorescence HPLC of resorufin stoichiometrically formed during their microperoxidase 11-catalized reduction in presence of Amplex Red (for 40 min at 4° C.) (8). Fluorescence HPLC (Eclipse XDB-C18 column, 5 μm, 150×4.6 mm, mobile phase was composed of 25 mM disodium phosphate buffer (pH 7.0)/methanol (60:40 v/v); excitation wavelength 560 nm, emission wavelength 590 nm) was performed on a Shimadzu LC-100AT HPLC system equipped with fluorescence detector (RF-10Axl) and autosampler (SIL-10AD).
In the subsequent series of in vivo studies, the affect of intraluminal XJB-5-131 on hemorrhage-induced peroxidation of phospholipids in intestinal mucosa was examined. […] In a preferred embodiment, 0.3 mL of test solution filled the lumen of each ileal compartment.
After two hours of HS, samples of ileal mucosa from the gut sacs filled with the vehicle and XJB-5-131 were obtained and compared with ileal mucosa of normal MECs. […]

Compound	γ-H2AX immunostaining [1]	level of p16 [1]	toxicity [2]	concentration in the mitochondria of cultured mouse embryonic cells (mouse embryonic cells)	peroxidation of phosphatidylcholine (PC) (rat ileal mucosa)	peroxidation of phosphatidylethanolamine (PE) (rat ileal mucosa)	peroxidation of phosphatidylserine (PS) (rat ileal mucosa)	SA-β galactosidase staining ([1]; 500 nM)	amount of apoptosis ([1]; 500 nM)	number of γH2AX foci ([1]; 500 nM)
CC(C)C[C@@H](/C=C/CC(=O)NC1CC(C)(C)N([O])C(C)(C)C1)NC(=O)OC(C)(C)C [JP4-039, TEMPO-4-yl-(S,E)-5-(tert-butoxycarbonylamino)-7-methyloct-3-enamide]	also effective	much lower	no signs of toxicity; also recorded: not toxic	–	–	–	–	–	–	–
CC(C)C[C@@H](/C=C/[C@H](Cc1ccccc1)C(=O)N1CCC[C@H]1C(=O)N[C@H](C(=O)N[C@@H](CCCNC(=O)OCc1ccccc1)C(=O)NC1CC(C)(C)N([O])C(C)(C)C1)C(C)C)NC(=O)OC(C)(C)C [XJB-5-131]	less effective	less effective	–	concentrated in the mitochondria	no effect	small effect	no effect	notably less	did not reduce the amount of apoptosis	reduce the number of γH2AX foci
